Experimental data from US20090299044A1 (priority 2006, published 2009).
“Also recorded” adds a separate entry of the source. Bridge positions count the residues as written; N and C are the ends. Ends that are not written are not given here. Peptide text beside a SMILES is read from it.

Assays:
[1] = test system: IL-2 production, human whole blood; type: cell-based
human Kv1.3 channel = human Kv1.3 channel (Homo sapiens, UniProt P22001); test: cell-based; type: cell-based
human Kv1.3 (CHO) = target: T1, human Kv1.3 (CHO) (Homo sapiens, UniProt P22001); test: cell-based
T1 construct: expressed in transfected cells; host or cells: CHO
T1 sequence (P22001 whole entry): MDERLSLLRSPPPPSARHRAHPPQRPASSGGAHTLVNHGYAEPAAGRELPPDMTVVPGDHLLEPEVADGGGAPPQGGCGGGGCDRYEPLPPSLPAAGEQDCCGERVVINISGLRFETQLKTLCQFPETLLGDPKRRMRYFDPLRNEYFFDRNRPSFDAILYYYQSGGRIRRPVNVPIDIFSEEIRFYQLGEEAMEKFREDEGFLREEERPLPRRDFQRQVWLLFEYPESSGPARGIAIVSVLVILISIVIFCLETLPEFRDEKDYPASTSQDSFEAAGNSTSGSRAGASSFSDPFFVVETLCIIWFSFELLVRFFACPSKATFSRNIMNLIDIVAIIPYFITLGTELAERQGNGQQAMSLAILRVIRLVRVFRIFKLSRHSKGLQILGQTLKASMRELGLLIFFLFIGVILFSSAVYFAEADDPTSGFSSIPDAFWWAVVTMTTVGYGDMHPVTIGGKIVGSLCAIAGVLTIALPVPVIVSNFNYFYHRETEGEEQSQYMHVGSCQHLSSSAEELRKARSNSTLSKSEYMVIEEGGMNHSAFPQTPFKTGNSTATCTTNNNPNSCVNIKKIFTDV

human Kv1.1 (HEK293) = target: T2, human Kv1.1 (HEK293) (Homo sapiens, UniProt Q09470); test: cell-based
T2 construct: expressed in transfected cells; host or cells: HEK293
T2 sequence (Q09470 whole entry): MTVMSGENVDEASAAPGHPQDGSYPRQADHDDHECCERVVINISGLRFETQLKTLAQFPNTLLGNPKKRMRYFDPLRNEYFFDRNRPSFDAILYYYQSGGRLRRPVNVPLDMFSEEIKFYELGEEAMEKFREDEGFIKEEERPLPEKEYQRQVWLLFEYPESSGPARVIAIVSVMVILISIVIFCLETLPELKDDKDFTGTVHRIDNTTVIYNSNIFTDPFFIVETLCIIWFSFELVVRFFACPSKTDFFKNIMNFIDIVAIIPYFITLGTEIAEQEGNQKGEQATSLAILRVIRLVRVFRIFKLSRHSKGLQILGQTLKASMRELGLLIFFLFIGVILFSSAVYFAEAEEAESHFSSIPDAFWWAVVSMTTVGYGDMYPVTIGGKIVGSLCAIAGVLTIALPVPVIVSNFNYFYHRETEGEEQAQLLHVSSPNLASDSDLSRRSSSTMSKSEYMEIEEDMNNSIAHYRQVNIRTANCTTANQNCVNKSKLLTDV

human Kv1.1 = human Kv1.1 (Homo sapiens, UniProt Q09470); test: cell-based; design: expressed in transfected cells; host or cells: HEK293; details: Kv1.1 (IC50, pM)
Chain of human Kv1.1 (Q09470 whole entry): as above

Chain of human Kv1.3 channel (P22001 whole entry): as the sequence (P22001 whole entry) above

Molecule | blockade of the whole blood cytokine response (IL-2 and IFNg), in words [1] | IC50 (human Kv1.3 channel) | IC50 (human Kv1.3 (CHO)) | IC50 (human Kv1.1 (HEK293)) | IC50 (human Kv1.1)
SEQ ID No: 4989: OSK1 analog without beta strand 1 (des 1-7), Table 42 (CKISRQCLKPCKDAGMRFGKCMNGKCHC-NH2; ends and bridges not checked) | retain activity in blocking inflammation | – | – | – | –
CC[C@H](C)[C@@H]1NC(=O)[C@H](CCCCN)NC(=O)[C@@H](NC(=O)[C@H](CCCCN)NC(=O)[C@@H](NC(=O)[C@H](CC(N)=O)NC(=O)[C@@H](NC(=O)[C@@H](NC(=O)[C@@H](NC(=O)CN)C(C)C)[C@@H](C)CC)[C@@H](C)CC)C(C)C)CSSC[C@@H]2NC(=O)[C@H](CCCCN)NC(=O)CNC(=O)[C@H](Cc3ccccc3)NC(=O)[C@H](CCCNC(=N)N)NC(=O)[C@H](CCSC)NC(=O)CNC(=O)[C@H](C)NC(=O)[C@H](CCCCN)NC(=O)[C@H](CCCCN)NC(=O)[C@@H]3CSSC[C@@H](C(=O)N[C@H](C(=O)N4CCC[C@H]4C(=O)N[C@@H](CCCCN)C(=O)O)[C@@H](C)O)NC(=O)[C@H](Cc4c[nH]cn4)NC(=O)[C@H](CSSC[C@H](NC(=O)[C@H](CCC(N)=O)NC(=O)[C@H](C)NC(=O)[C@H](CO)NC1=O)C(=O)N[C@@H](CC(C)C)C(=O)N[C@@H](CCC(=O)O)C(=O)N1CCC[C@H]1C(=O)N3)NC(=O)[C@H](CCCCN)NC(=O)CNC(=O)[C@H](CC(N)=O)NC(=O)[C@H](CCSC)NC2=O [R12A] (H-GVIINVKCKISAQCLEPCKKAGMRFGKCMNGKCHCTPK-OH; disulfide 8-28, 14-33, 18-35) | – | 0.025 nM | 0.39 nM | 0.0559 nM | 440 pM
CC[C@H](C)[C@@H]1NC(=O)[C@H](CCCCN)NC(=O)[C@@H](NC(=O)[C@H](CCCCN)NC(=O)[C@@H](NC(=O)[C@H](CC(N)=O)NC(=O)[C@@H](NC(=O)[C@@H](NC(=O)[C@@H](NC(=O)CN)C(C)C)[C@@H](C)CC)[C@@H](C)CC)C(C)C)CSSC[C@@H]2NC(=O)[C@H](CCCCN)NC(=O)CNC(=O)[C@H](Cc3ccccc3)NC(=O)[C@H](CCCNC(=N)N)NC(=O)[C@H](CCSC)NC(=O)CNC(=O)[C@H](C)NC(=O)[C@H](CCCCN)NC(=O)[C@H](CCCCN)NC(=O)[C@@H]3CSSC[C@@H](C(=O)N[C@H](C(=O)N4CCC[C@H]4C(=O)N[C@@H](CCCCN)C(=O)O)[C@@H](C)O)NC(=O)[C@H](C)NC(=O)[C@H](CSSC[C@H](NC(=O)[C@H](CCC(N)=O)NC(=O)[C@H](CCCNC(=N)N)NC(=O)[C@H](CO)NC1=O)C(=O)N[C@@H](CC(C)C)C(=O)N[C@@H](CCC(=O)O)C(=O)N1CCC[C@H]1C(=O)N3)NC(=O)[C@H](CCCCN)NC(=O)CNC(=O)[C@H](CC(N)=O)NC(=O)[C@H](CCSC)NC2=O [H34A] (H-GVIINVKCKISRQCLEPCKKAGMRFGKCMNGKCACTPK-OH; disulfide 8-28, 14-33, 18-35) | – | 0.016 nM | 0.0194 nM | 0.368 nM | 12800 pM
CC[C@H](C)[C@@H]1NC(=O)[C@H](CCCCN)NC(=O)[C@@H](NC(=O)[C@H](CCCCN)NC(=O)[C@@H](NC(=O)[C@H](CC(N)=O)NC(=O)[C@@H](NC(=O)[C@@H](NC(=O)[C@@H](NC(=O)CN)C(C)C)[C@@H](C)CC)[C@@H](C)CC)C(C)C)CSSC[C@@H]2NC(=O)[C@H](CCCCN)NC(=O)CNC(=O)[C@H](Cc3ccccc3)NC(=O)[C@H](CCCNC(=N)N)NC(=O)[C@H](CCSC)NC(=O)CNC(=O)[C@H](C)NC(=O)[C@H](CCCCN)NC(=O)[C@H](CCCCN)NC(=O)[C@@H]3CSSC[C@@H](C(=O)N[C@H](C(=O)N4CCC[C@H]4C(=O)N[C@@H](CCCCN)C(=O)O)[C@@H](C)O)NC(=O)[C@H](Cc4c[nH]cn4)NC(=O)[C@H](CSSC[C@H](NC(=O)[C@H](CCC(N)=O)NC(=O)[C@H](CCCNC(=N)N)NC(=O)[C@H](CO)NC1=O)C(=O)N[C@@H](CC(C)C)C(=O)N[C@@H](CCC(=O)O)C(=O)N1CCC[C@H]1C(=O)N3)NC(=O)[C@H](CCCCN)NC(=O)CNC(=O)[C@H](C)NC(=O)[C@H](CCSC)NC2=O [N30A] (H-GVIINVKCKISRQCLEPCKKAGMRFGKCMAGKCHCTPK-OH; disulfide 8-28, 14-33, 18-35) | – | 0.766 nM | 0.693 nM | > 3 nM | 10200 pM
CC[C@H](C)[C@@H]1NC(=O)[C@H](CCCCN)NC(=O)[C@@H](NC(=O)[C@H](CCCCN)NC(=O)[C@@H](NC(=O)[C@H](CC(N)=O)NC(=O)[C@@H](NC(=O)[C@@H](NC(=O)[C@@H](NC(=O)CN)C(C)C)[C@@H](C)CC)[C@@H](C)CC)C(C)C)CSSC[C@@H]2NC(=O)[C@H](CCCCN)NC(=O)CNC(=O)[C@H](Cc3ccccc3)NC(=O)[C@H](CCCNC(=N)N)NC(=O)[C@H](CCSC)NC(=O)CNC(=O)[C@H](C)NC(=O)[C@H](CCCCN)NC(=O)[C@H](CCCCN)NC(=O)[C@@H]3CSSC[C@@H](C(=O)N[C@H](C(=O)N[C@@H](CCC(=O)O)C(=O)N[C@@H](CCCCN)C(=O)O)[C@@H](C)O)NC(=O)[C@H](Cc4c[nH]cn4)NC(=O)[C@H](CSSC[C@H](NC(=O)[C@H](CCC(N)=O)NC(=O)[C@H](CCCNC(=N)N)NC(=O)[C@H](CO)NC1=O)C(=O)N[C@@H](CC(C)C)C(=O)N[C@@H](CCC(=O)O)C(=O)N1CCC[C@H]1C(=O)N3)NC(=O)[C@H](CCCCN)NC(=O)CNC(=O)[C@H](CC(N)=O)NC(=O)[C@H](CCSC)NC2=O [P37E] (H-GVIINVKCKISRQCLEPCKKAGMRFGKCMNGKCHCTEK-OH; disulfide 8-28, 14-33, 18-35) | – | 0.241 nM | 0.0627 nM | 0.622 nM | 15700 pM
FcLoop-L2-ShK-L2: ShK inserted into the human IgG1 Fc-loop with 2-Gly linkers (protein, Definition of Artificial Sequence: Synthetic protein) MDKTHTCPPCPAPELLGGPSVFLFPPKPKDTLMISRTPEVTCVVVDVSHEDPEVKFNWYVDGVEVHNAKTKPREEQYNSTYRVVSVLTVLHQDWLNGKEYKCKVSNKALPAPIEKTISKAKGQPREPQVYTLPPSRDELGGRSCIDTIPKSRCTAFQCKHSMKYRLSFCRKTCGTCGGTKNQVSLTCLVKGFYPSDIAVEWESNGQPENNYKTTPPVLDSDGSFFLYSKLTVDKSRWQQGNVFSCSVMHEALHNHYTQKSLSLSPGK | potent blockade | – | – | – | –
PEGylated CH2-OSK1: CH2-OSK1 fusion protein mono-PEGylated with 20 kD methoxy-PEG-aldehyde (conjugate) MGGHHHHHHGGGPSVFLFPPKPKDTLMISRTPEVTCVVVDVSHEDPEVKFNWYVDGVEVHNAKTKPREEQYNSTYRVVSVLTVLHQDWLNGKEYKCKVSNKALPAPIEKTISGGGGSGGGGSGVIINVKCKISRQCLEPCKKAGMRFGKCMNGKCHCTPK | active in blocking inflammation; also recorded: modest blockade | – | – | – | –
FcLoop-L2-OsK1-L2: OsK1 inserted into the human IgG1 Fc-loop between Leu139 and Thr140 with 2-Gly linkers (protein, Definition of Artificial Sequence: Synthetic protein) MDKTHTCPPCPAPELLGGPSVFLFPPKPKDTLMISRTPEVTCVVVDVSHEDPEVKFNWYVDGVEVHNAKTKPREEQYNSTYRVVSVLTVLHQDWLNGKEYKCKVSNKALPAPIEKTISKAKGQPREPQVYTLPPSRDELGGGVIINVKCKISRQCLEPCKKAGMRFGKCMNGKCHCTPKGGTKNQVSLTCLVKGFYPSDIAVEWESNGQPENNYKTTPPVLDSDGSFFLYSKLTVDKSRWQQGNVFSCSVMHEALHNHYTQKSLSLSPGK | potent blockade | – | – | – | –
